{"source": "paper PMC5073322", "about": "“Novel Natural Product-like Caged Xanthones Bearing a Carbamate Moiety Exhibit Antitumor Potency and Anti-Angiogenesis Activity In vivo” (Scientific Reports, 2016)", "key": {"[1]": {"tested_on": "Caspase-3 and PARP in HepG2 cells", "assay": "Western blot of apoptosis-related proteins", "type": "cell-based, human", "conditions": "HepG2, 24 h", "experimental": "Figure 6 (A) Morphological changes in cancer cells and nuclei. (B) 8n induced apoptosis in HepG2 cells. Cultured HepG2 cells were treated with the indicated concentrations of 8n for 48 h. The cells were then were stained with DAPI and observed by fluorescence microscopy. (C) 8n induces apoptosis in a dose-dependent manner. HepG2 cells were treated with different concentrations of 8n for 48 h, and Annexin V and propidium iodide staining were performed. (D) The percentages of early apoptotic and total apoptotic cells were quantified using flow cytometry. *p < 0.05; **p < 0.01. (E) The expression of apoptotic-related proteins in HepG2 cells treated with 8n. HepG2 cells were treated with various concentrations of 8n for 24 h and were then harvested and lysed. The expression levels of Caspase-3, Cleaved Caspase-3, Bax, Bcl-2, PARP and cleaved PARP were measured by Western blotting. TEXT PRINTED IN THE PICTURE: (C) Compound 8n: Dead 1.50 % (Control); Late Apop./Dead 4.95 % (Control); Early Apop. 1.05 % (Control); Dead 1.95 % (0.1 μM); Late Apop./Dead 7.80 % (0.1 μM); Early Apop. 1.60 % (0.1 μM); Dead 7.81 % (0.3 μM); Late Apop./Dead 9.19 % (0.3 μM); Early Apop. […]\nThe cells were washed with PBS and lysed with ice-cold lysis buffer supplemented with protease inhibitors (Roche) for 30 min. The protein content of the supernatants of lysates was determined using a bicinchoninic acid assay. […]"}, "HCT116": {"tested_on": "HCT116", "assay": "MTT antiproliferative assay, HCT116", "conditions": "read-out: IC50 HCT116; MTT, 72 h", "procedure": "(§1) The inhibition of tumour cell growth was measured by a modified tetrazolium (MTT) salt assay, as previously described[39]. Cells were cultured in a 96-well plate and treated with culture medium alone or different concentrations of the compounds. The cells were incubated for 72 h, and then, the MTT assay reagent was added. After a 4 h incubation, the formazan product was quantitated at 570 nm. The IC50 values (the concentrations that gave rise to 50% inhibition of cell viability) were calculated using GraphPad Prism 6 using a variable slope (four parameters)."}, "[2]": {"tested_on": "zebrafish embryos (intersegmental vessels)", "assay": "In vivo fluorescent zebrafish angiogenesis assay", "conditions": "24 h", "experimental": "Zebrafish has been proposed as a valid alternative animal model for investigating angiogenesis. The effect of 8n on embryonic angiogenesis in zebrafish was evaluated.\nTransgenic zebrafish (VEGFR2: GFP) embryos were supplied using the drug screening platform of the Shandong Academy of Sciences Institute; they were grown and maintained according to the same protocols. The screen was carried out in 24-well plates. Compounds were prepared initially as a 10 mg/mL stock solution in dimethyl sulfoxide (DMSO). The stock solution was diluted to the relevant assay concentration with fish water, and 0.5% DMSO served as a vehicle control. The embryos were distributed in 24-well plates, with 10 embryos placed in each well. Then, a diluted solution of each compound was added. The embryos were exposed to the compound solution and incubated at 28.5 °C. After 24 h, the zebrafish were anesthetized with 0.01% tricaine and imaged under a fluorescence microscope (Olympus, Inc.) equipped with a SZX16 microscope and a DP2-BSW digital camera (Olympus, Inc.). The animal experiments were performed in accordance with the approval of the Chinese Academy of Medical Sciences and the Biology Institute of Shandong Academy of Sciences. All studies were performed in accordance with the approved guidelines from the China Zebrafish Resource Center with the approved protocol number of 2012CB944504."}, "MDA-MB-231": {"tested_on": "MDA-MB-231", "assay": "MTT antiproliferative assay, MDA-MB-231", "conditions": "read-out: IC50 MDA-MB-231; MTT, 72 h", "procedure": "as §1"}, "HepG2": {"tested_on": "HepG2", "assay": "MTT antiproliferative assay, HepG2", "conditions": "read-out: IC50 HepG2; MTT, 72 h", "procedure": "as §1"}}}
{"smiles": "CC(C)=CCC12OC(C)(C)C3CC(C=C4C(=O)c5c(OC(=O)N6CCC(N7CCCCC7)CC6)cccc5OC431)C2=O", "note": "(stereo not drawn) [Compound 8n]", "values": [{"measurement": "levels of cleaved caspase-3/PARP", "setting": "[1]", "value": "increased"}, {"measurement": "IC50", "setting": "HCT116", "value": "970 ± 120", "unit": "nM"}, {"measurement": "formation of intersegmental vessels", "setting": "[2]; 10 μg/ml or 5 μg/ml", "value": "considerably inhibited"}, {"measurement": "formation of intersegmental vessels", "setting": "[2]; 50 μg/ml", "value": "completely blocked"}, {"measurement": "IC50", "setting": "MDA-MB-231", "value": "1200 ± 70", "unit": "nM"}, {"measurement": "IC50", "setting": "HepG2", "value": "1320 ± 450", "unit": "nM"}]}
